Assay results: patent US20210276960A1, “INHIBITORS OF TISSUE TRANSGLUTAMINASE 2 (TG2) AND USES THEREOF” (Northwestern University, priority 2020, published 2021)

Legend:
OVCAR5 cells = assay: TIRF microscopy of β1 integrin distribution; type: cell-based, human; conditions: 1 μM or 5 μM, 1 h pre-treatment
Procedure: For assessing the potential effect of SMIs on 01 integrin distribution at the interface between cells and the FN matrix, OVCAR5 cells were treated for 1 h with either TG53 or MT-4 in serum-free media at 37° C., and then seeded onto FN-coated glass bottom microwell dishes (MatTek Corp. Ashland, Mass.) for 45 minutes at 37° C. Samples were fixed in PFA and blocked in 1% BSA. 01 integrin receptors were detected by using anti-01 integrin antibodies (clone P5D2, Chemicon, #MAB1959, 1:100) and AlexaFluor 568-conjugated anti-mouse secondary antibodies, while actin was labeled using Alexa Fluor 488-conjugated phalloidin. Cells were imaged with a Nikon Ti2 Microscope equipped with a Photometrics Prime 95B camera using a Nikon Plan Apo 100×1.49 NA TIRF objective.

[1] = target: T1, His-tagged TG2 / biotinylated FN42 interaction (Homo sapiens, UniProt P21980); assay: ELISA of the TG2-FN interaction; type: binding
T1 construct: made in house
T1 sequence (P21980 1-687): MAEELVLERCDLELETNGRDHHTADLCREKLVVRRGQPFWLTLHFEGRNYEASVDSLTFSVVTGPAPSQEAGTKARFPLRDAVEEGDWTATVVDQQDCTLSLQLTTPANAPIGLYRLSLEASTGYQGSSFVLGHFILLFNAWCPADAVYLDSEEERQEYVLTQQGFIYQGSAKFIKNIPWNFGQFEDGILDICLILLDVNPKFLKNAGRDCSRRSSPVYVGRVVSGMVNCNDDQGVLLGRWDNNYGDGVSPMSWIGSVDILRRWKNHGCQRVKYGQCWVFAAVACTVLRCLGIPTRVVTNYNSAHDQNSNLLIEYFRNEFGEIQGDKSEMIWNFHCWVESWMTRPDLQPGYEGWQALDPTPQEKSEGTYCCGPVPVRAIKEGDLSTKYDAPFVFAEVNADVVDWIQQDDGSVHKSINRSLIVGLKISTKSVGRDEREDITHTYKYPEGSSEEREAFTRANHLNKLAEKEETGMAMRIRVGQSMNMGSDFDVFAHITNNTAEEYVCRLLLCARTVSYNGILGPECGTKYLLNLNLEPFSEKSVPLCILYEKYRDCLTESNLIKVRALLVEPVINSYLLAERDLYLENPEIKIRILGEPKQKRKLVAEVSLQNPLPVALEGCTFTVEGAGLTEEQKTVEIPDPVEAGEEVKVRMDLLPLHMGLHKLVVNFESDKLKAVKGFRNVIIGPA
Procedure: Confirmation using ELISA: An independent ELISA validated inhibition of TG2/FN complex formation by SMIs^11. The ELISA assay measured the binding between His6-TG2 captured to the wells by anti-His antibodies and biotinylated FN42 detectable with streptavidin-HRP (FIG. 12A). […] Selected compounds (at concentrations between 5 and 10 μM) inhibited the ELISA signal by 29.7% to 69.5%^11.
ELISA measured the interaction between recombinant His tagged TG2 (rTG2-His) and the biotinylated 42 kD fragment of FN (FN42) which were expressed and purified, as previously described (Yakubov et al., 2014). Briefly, a mixture of 10 nMrTG2-His and selected SMIs or DMSO was added to 96 well plates pre-coated with monoclonal anti-His antibody (Roche, Indianapolis, Ind.; 1:6000). The mixture was incubated for 1 h at RT with 5 nM biotinylated FN42. After washing, wells were incubated with streptavidin-HRP (Cell Signaling, #3999; 1:2000). The reaction was developed with 3,3′,5,5′tetramethylbenzidine (TMB) substrate (BD Biosciences, #555214) and the optical density at […] was measured by using a BioTek microplate reader (Winooski, Vt., USA). Data shown are means±SEM of two independent experiments (n=6).

Solubility assay = type: physicochemical; conditions: pH=7.4 PBS buffer, 2% DMSO
Procedure: Solubility was measured in a 384-well plate using a Synergy HTX plate reader. Starting with a 50 mM DMSO stock solution of test compounds, dilutions were made from 1 to 500 μM final concentrations using acetonitrile, keeping the final DMSO concentration at 2%. UV absorption was measured at 254 nm and absorbance versus concentration was plotted to give a standard curve. A DMSO stock of test compound was also diluted with pH=7.4 PBS buffer to give a final concentration of 250 μM containing 2% DMSO. This mixture was stirred on a plate shaker for 1 hr after which it was centrifuged at 2500 rpm for 3 min. 50 μL of the supernatant was removed, transferred to a 384-well plate, and the UV absorbance at 254 nm was measured. Absorbance of the test compound in PBS buffer was analyzed with the standard curve to determine solubility.

[2] = system: integrin β1 on SKOV3 cells; assay: Flow cytometry of surface integrin β1, SKOV3; type: cell-based; conditions: serial concentrations
Procedure: (§1) FIG. 32. Flow cytometry analysis of integrin 31 plasma membrane expression. […] OC cells were pre-incubated 1 h with serial dilutions of MT4 (as compared to TG53- and DMSO-treated cells), and left to attach for on either plastic (P) or fibronectin (FN) coated 6-well plates. Anti-integrin 31 antibodies (0.5 μg/mL) were used as control.

[3] = system: FAK phosphorylation in SKOV3 cells; assay: Western blotting, FAK phosphorylation dose response; type: cell-based; conditions: increasing doses (TG53 8 to 16 μM), 2 hours after adhesion to FN
Procedure: FIG. 33. Dose response effects induced by TG2-FN inhibitors on FAK phosphorylation.
Lysates were separated by SDS-PAGE, transferred onto PVDF membranes (Bio-Rad), incubated with primary and secondary antibodies and developed by using SuperSignal™ West Femto Maximum Sensitivity Substrate and Pierce™ ECL Western Blotting Substrate, respectively (Thermo Scientific). Images were obtained by using the ImageQuant LAS 4000 mini-imager (GE Healthcare, Pittsburgh, Pa.). Densitometry analysis was performed using Quantity One software (Bio-Rad) and results were normalized to GAPDH loading controls. DMSO 0 min time point was considered as 1 for comparative analysis.

[4] = system: integrin β1 on OVCAR5 cells; assay: Flow cytometry of surface integrin β1, OVCAR5; type: cell-based, human; conditions: serial concentrations
Procedure: as §1

| Structure (SMILES) | β1 integrin distribution at the interface with FN (OVCAR5 cells) | inhibition of rTG2-FN42 interaction relative to TG53 ([1]; 10 μM) | solubility at 1 h (Solubility assay; aqueous buffer, kinetic from dmso stock) | β1 integrin receptors at the plasma membrane [2] | FAK phosphorylation [3] | β1 integrin receptors at the plasma membrane [4] | binding mode (Lineweaver-Burk plot analysis) [1] | inhibition of ELISA signal ([1]; 5 μM) | Ki ([1]; saturation curves of FN42 with increasing TG53, read-out: inhibition constant Ki) | solubility at 1 h (Solubility assay) |
| --- | --- | --- | --- | --- | --- | --- | --- | --- | --- | --- |
| Cc1cc(N(C)C)nc(Nc2ccc(NC(=O)Cc3ccccc3)cc2)n1 [MT-4] | enhanced 31 integrin transposition towards the extreme edge of the cell | slightly more potently than TG53 | 91.5 µM | did not show significant downregulation | dose-dependent inhibition | did not show significant downregulation |  |  |  |  |
| COc1ccc(Cl)cc1C(=O)Nc1ccc(Nc2nc(C)cc(N(C)C)n2)cc1 [TG53] | modest displacement of integrin receptors towards the cell perimeter |  |  | did not show significant downregulation | attenuated | did not show significant downregulation | competes for the same binding site in TG2 as FN42 | 65% | 4.15 µM | <5 µM |
